From patent US9308215B2, “Avermectins and milbemycins as anti-mycobacterial agents” (priority 2013, dated 2016) come the findings set out here.

The test system of this experiment is M. tuberculosis. Nature of the experiment: microbe, parasite or virus in culture. Format: cell-based, Mycobacterium tuberculosis. The following applies: resistance profile INH; for MIC90: Mycobacterium tuberculosis.
Setting [1] is: read-out: In vitro MIC90, strain BC-MDR2, RIF, PZA, SM, RBT.
Setting [2] is: read-out: In vitro MIC90, strain BC-MDR3, RIF, RBT.
[3] abbreviates: read-out: In vitro MIC90, strain BC-MDR4, RIF, EMB, PZA, RBT.
The mark [4] stands for this setting: read-out: In vitro MIC90, strain BC-MDR5, RIF, PZA, SM, PAS, RBT.
Setting [5] is: read-out: In vitro MIC90, strain CI5058, RIF.
Setting [6] is: read-out: In vitro MIC90, strain CI5072, RIF, SM.
Where [7] appears, read: read-out: In vitro MIC90, strain CI5297.
The mark [8] stands for this setting: read-out: In vitro MIC90, strain CI5305.
Setting [9] is: read-out: In vitro MIC90, strain CI5324, RIF.
Where [10] appears, read: read-out: In vitro MIC90, strain CI5358, EMB, ETH.
Setting [11] is: read-out: In vitro MIC90, strain CI5400, RIF.
Where [12] appears, read: read-out: In vitro MIC90, strain CI5447.
[13] abbreviates: read-out: In vitro MIC90, strain CI5459, EMB, ETH.
The mark [14] stands for this setting: read-out: In vitro MIC90, strain CI12081, RIF, SM, EMB, ETH.
Where [15] appears, read: read-out: In vitro MIC90, strain KZN5, RIF, SM, EMB, ETH, KM, PZA.
The mark [16] stands for this setting: read-out: In vitro MIC90, strain KZN6, RIF, SM, EMB, ETH, KM, PZA.
The mark [17] stands for this setting: read-out: In vitro MIC90, strain KZN11, RIF, SM, EMB.
The mark [18] stands for this setting: read-out: In vitro MIC90, strain KZN12, RIF, SM, EMB, ETH, KM, PZA.
The mark [19] stands for this setting: read-out: In vitro MIC90, strain KZN14, RIF, SM, EMB, ETH, KM, PZA.
The mark [20] stands for this setting: read-out: In vitro MIC90, strain KZN15, RIF, SM, EMB, ETH, KM, PZA.
Where [21] appears, read: read-out: In vitro MIC90, strain KZN16, RIF, SM, EMB, ETH, KM, PZA.
[22] abbreviates: read-out: In vitro MIC90, strain V2475, RIF.

Converted amounts (≈) assume the structure as drawn. Where two headings read alike, the source gives them in different places.

Consider `CC[C@H](C)[C@H]1O[C@]2(CC[C@@H]1C)C[C@@H]1C[C@@H](C/C=C(\C)[C@@H](O[C@H]3C[C@H](OC)[C@@H](O[C@H]4C[C@H](OC)[C@@H](O)[C@H](C)O4)[C@H](C)O3)[C@@H](C)/C=C/C=C3\CO[C@@H]4[C@H](O)C(C)=C[C@@H](C(=O)O1)[C@]34O)O2` [Ivermectin], for which the “In vitro MIC90” value by setting is: (strain BC-MDR2, RIF, PZA, SM, RBT) > 128 µg/mL; (strain BC-MDR3, RIF, RBT) 1 to 2 µg/mL; (strain BC-MDR4, RIF, EMB, PZA, RBT) 4 to 16 µg/mL; (strain BC-MDR5, RIF, PZA, SM, PAS, RBT) 4 to 16 µg/mL; (strain CI5058, RIF) 6 µg/mL; (strain CI5072, RIF, SM) >24 µg/mL. Further, the “In vitro MIC90” value by setting is: (strain CI5297) 6 µg/mL; (strain CI5305) 3 µg/mL; (strain CI5324, RIF) 6 µg/mL; (strain CI5358, EMB, ETH) 3 µg/mL; (strain CI5400, RIF) 3 µg/mL; (strain CI5447) 1.5 µg/mL. Also, the “In vitro MIC90” value is, setting by setting: (strain CI5459, EMB, ETH) 3 µg/mL; (strain CI12081, RIF, SM, EMB, ETH) >24 µg/mL; (strain H37Rv mc^24977) 6 µg/mL; (strain H37Rv mc^25857, RIF) 3 µg/mL; (strain H37Rv mc^25858, RIF) 3 µg/mL; (strain KZN5, RIF, SM, EMB, ETH, KM, PZA) 6 µg/mL. Also, the “In vitro MIC90” value reads like this: (strain KZN6, RIF, SM, EMB, ETH, KM, PZA) 6 µg/mL; (strain KZN11, RIF, SM, EMB) 3 µg/mL; (strain KZN12, RIF, SM, EMB, ETH, KM, PZA) 3 µg/mL; (strain KZN14, RIF, SM, EMB, ETH, KM, PZA) 6 to 12 µg/mL; (strain KZN15, RIF, SM, EMB, ETH, KM, PZA) 6 µg/mL; (strain KZN16, RIF, SM, EMB, ETH, KM, PZA) 3 µg/mL. Where the note is “strain V2475, RIF”, the “In vitro MIC90” value is 1.5 µg/mL.
`CO/N=C1\C[C@]2(C[C@@H]3C[C@@H](C/C=C(\C)C[C@@H](C)/C=C/C=C4\CO[C@@H]5[C@H](O)C(C)=C[C@@H](C(=O)O3)[C@]45O)O2)O[C@H](/C(C)=C/C(C)C)[C@H]1C` [Moxidectin]: the MIC90 is, setting by setting: under setting [1], 2 to 4 µg/mL (≈ 3.13 to 6.25 µM); under setting [2], 1 to 2 µg/mL (≈ 1.56 to 3.13 µM); under setting [3], 2 to 4 µg/mL (≈ 3.13 to 6.25 µM); under setting [4], 2 to 4 µg/mL (≈ 3.13 to 6.25 µM); under setting [5], 6 µg/mL (≈ 9.38 µM); under setting [6], 3 µg/mL (≈ 4.69 µM). Besides, the MIC90 runs as follows: under setting [7], 6 µg/mL (≈ 9.38 µM); under setting [8], 1.5 µg/mL (≈ 2.34 µM); under setting [9], 3 µg/mL (≈ 4.69 µM); under setting [10], 3 µg/mL (≈ 4.69 µM); under setting [11], 3 µg/mL (≈ 4.69 µM); under setting [12], 0.8 to 1.5 µg/mL (≈ 1.25 to 2.34 µM). Moreover, the MIC90 is, setting by setting: under setting [13], 1.5 µg/mL (≈ 2.34 µM); under setting [14], 3 µg/mL (≈ 4.69 µM); under setting [15], 3 µg/mL (≈ 4.69 µM); under setting [16], 3 µg/mL (≈ 4.69 µM); under setting [17], 3 µg/mL (≈ 4.69 µM); under setting [18], 1.5 µg/mL (≈ 2.34 µM). The MIC90 reads like this: under setting [19], 3 to 6 µg/mL (≈ 4.69 to 9.38 µM); under setting [20], 3 µg/mL (≈ 4.69 µM); under setting [21], 1.5 µg/mL (≈ 2.34 µM); under setting [22], 3 µg/mL (≈ 4.69 µM).
As for `CO[C@H]1C[C@H](O[C@@H]2/C(C)=C/C[C@@H]3C[C@@H](C[C@]4(CC[C@H](C)[C@@H](C5CCCCC5)O4)O3)OC(=O)[C@@H]3C=C(C)/C(=N/O)[C@H]4OC/C(=C\C=C\[C@@H]2C)[C@]43O)O[C@@H](C)[C@@H]1O` [Selamectin], the MIC90 reads like this: under setting [1], 2 µg/mL (≈ 2.6 µM); under setting [2], 0.5 to 1 µg/mL (≈ 0.649 to 1.3 µM); under setting [3], 2 µg/mL (≈ 2.6 µM); under setting [4], 2 µg/mL (≈ 2.6 µM); under setting [5], 6 µg/mL (≈ 7.79 µM); under setting [6], 3 to 6 µg/mL (≈ 3.9 to 7.79 µM). Also, the MIC90 by setting is: under setting [7], 3 µg/mL (≈ 3.9 µM); under setting [8], 1.5 µg/mL (≈ 1.95 µM); under setting [9], 3 µg/mL (≈ 3.9 µM); under setting [10], 1.5 µg/mL (≈ 1.95 µM); under setting [11], 3 µg/mL (≈ 3.9 µM); under setting [12], 1.5 µg/mL (≈ 1.95 µM). Also, the MIC90 under setting [13] fell in the range of 1.5 to 3 µg/mL (≈ 1.95 to 3.9 µM); the MIC90 under setting [14] is 3 µg/mL (≈ 3.9 µM); the MIC90 under setting [15] was determined as 3 µg/mL (≈ 3.9 µM); the MIC90 under setting [16] is 6 µg/mL (≈ 7.79 µM); the MIC90 under setting [17] amounted to 3 µg/mL (≈ 3.9 µM); the MIC90 under setting [18] was 3 µg/mL (≈ 3.9 µM). For the same compound, the MIC90 came to 6 µg/mL (≈ 7.79 µM) under setting [19], 3 µg/mL (≈ 3.9 µM) under setting [20], 1.5 µg/mL (≈ 1.95 µM) under setting [21] and 1.5 µg/mL (≈ 1.95 µM) under setting [22].
